Data set [1] can be described thus: Viscosity of FITC-Dex solutions (rotating rheometer). Type of data set: physicochemical. As to the method:
The viscosity was measured using a rotating rheometer (Physica MCR302, product of Anton Paar).

In a further data set the test system is C26 cells. In words: Cytotoxic effect (Cell Counting Kit-8). The conditions noted are these: 48 and 72 hours, gemcitabine concentration 0.1 μg/mL or matched carrier amount. Type of data set: cell-based, murine. As to the method: Also, the cytotoxic effects of each of the samples (sample Nos. 1 to 6) at 48 hours and 72 hours after the start of culturing were evaluated by the following procedure. Specifically, using a Cell Counting Kit-8 (product of Dojindo) according to the manufacturer's instructions, reagent was added to each well and culturing was conducted for 1 hour, after which the viable cell count was measured. The results after 48 hours of culturing are shown in FIG. 34(a), and the results after 72 hours of culturing are shown in FIG. 34(b).
In addition, using C26 cells (a murine colon adenocarcinoma cell line) instead of A549 cells, the cell uptake property and cytotoxic effect were evaluated by the same procedure described above, except for the points mentioned below. […]
Background: Formazan colour is commonly taken as a measure of viable cells.

For data set [2], the system named is human pulmonary carcinoma cell line A549. In words: Tumor treatment effect in A549-transplanted BALB/c nude mice. The format is in vivo, mouse. The conditions noted are these: 200 μL i.v.; gemcitabine 5 mg/kg or matched carrier amount; 28 days; vs PBS group. As to the method: Human pulmonary carcinoma cell line A549-transplanted BALB/c nude mice (7-week-old, for each sample) were divided into 7 groups of 5 each, among which 6 of the groups were intravenously administered samples 1 to 6 (Groups 1 to 6), respectively. The dose of each sample was 200 μL, and the concentration of each sample of the GEM-adsorbed sulfonated MSN-encapsulating vesicles (sample No. 1), the GEM-adsorbed sulfonated MSN (sample No. 3) and the gemcitabine alone (sample No. 6) was adjusted for a gemcitabine concentration of 5 mg/kg of mouse body weight, while the amounts of sulfonated MSN-encapsulating vesicles (sample No. 2) and vacant vesicles (sample No. 5) added were adjusted to be the same as the amount of GEM-adsorbed sulfonated MSN-encapsulating vesicles (sample No. 1) in terms of MSN-encapsulating vesicles, and the amount of sulfonated MSN (sample No. 4) added was adjusted to be the same as the amount of GEM-adsorbed sulfonated MSN (sample No. 3) in terms of MSN. To the remaining group there was administered 200 μL of PBS (Group 7). The tumor volumes were measured for 28 days after administration. Tumor volume was measured by measuring the long diameter and short diameter of the tumor using a caliper, and calculation was performed by the following formula. V=(a^2×b)/2 V: Tumor volume, a: long diameter, b: short diameter

In a further data set the test system is A549 cells. As to the kind of experiment: Cytotoxic effect (Cell Counting Kit-8). The conditions noted are these: 48 and 72 hours, gemcitabine concentration 0.5 μg/mL or matched carrier amount. The format is cell-based, human. As to the method:
Specifically, the GEM-adsorbed sulfonated MSN-encapsulating vesicles obtained by the procedure described above (sample No. 1), the sulfonated MSN-encapsulating vesicles used as material for the foregoing (Example II-3A) (sample No. 2) and the vacant vesicles used as material for the foregoing (Example II-1) (sample No. 5) were each labeled with Cy3 (labeling 25% of the number of anionic polymers), and then A549 cells were added to each well of a plate having a density of 2.2×10^3 cells/well in RPMI-1640 medium, prior to culturing at 37° C. The amount of GEM-adsorbed sulfonated MSN-encapsulating vesicles (sample No. 1) added was an amount for a gemcitabine concentration of 0.5 μg/mL in the medium, the amounts of sulfonated MSN-encapsulating vesicles (sample No. 2) and vacant vesicles (sample No. 5) added were adjusted to be the same as the amount of GEM-adsorbed sulfonated MSN-encapsulating vesicles (sample No. 1) in terms of MSN-encapsulating vesicles. […]
Also, the cytotoxic effects of each of the samples (sample Nos. 1 to 6) at 48 hours and 72 hours after the start of culturing were evaluated by the following procedure. Specifically, using a Cell Counting Kit-8 (product of Dojindo) according to the manufacturer's instructions, reagent was added to each well and culturing was conducted for 1 hour, after which the viable cell count was measured. […]

Data set [3] concerns mouse colon cancer cell line C26. As to the kind of experiment: Tumor treatment effect in C26-transplanted BALB/c mice. The conditions noted are these: for antitumor effect (tumor volume): i.v., days 3, 7, 10, 14. The format is in vivo. As to the method:
Mouse colon cancer cell line C26-transplanted BALB/c mice (6-week-old) were divided into 8 groups of 5 each (groups 1 to 8), and each group was intravenously administered 200 μL each of CD-enclosing crosslinked vesicles (0.5 U/mL) prepared by the procedure described above, 5-FC, 5-FU or PBS, at the timing shown in Table 9 below. The 5-FC and 5-FU were prepared for 10 mg/kg (body weight) or 80 mg/kg (body weight), based on the mouse body weight. […] The tumor volume was measured by measuring the long diameter and short diameter of the tumor using a caliper, and the calculation was performed by the following formula. V=(a^2×b)/2 V: Tumor volume, a: long diameter, b: short diameter

[4] abbreviates: dose of 10 mg/kg (5-FC or 5-FU).
[5] abbreviates: dose of 80 mg/kg (5-FC or 5-FU).

Turning to “fluorescein isothiocyanate-dextran [FITC-Dex 10000]”, the viscosity was 0.0504 Pa·s in data set [1] (concentration 4 mg/mL) and 0.1271 Pa·s in data set [1] (concentration 10 mg/mL).
The compound “fluorescein isothiocyanate-dextran [FITC-Dex 4000]” came in with a viscosity in data set [1] (concentration 10 mg/mL) of 0.0097 Pa·s.
As for `Nc1ccn([C@@H]2O[C@H](CO)[C@@H](O)C2(F)F)c(=O)n1` [gemcitabine alone, Gemcitabine], the “cytotoxic effect (viable cell count)” value in the data set on C26 cells and in the data set with A549 cells was “powerful cytotoxic effect” in each case. In addition, in data set [2], the “antitumor effect (tumor volume)” value is recorded as “no significant antitumor effect was seen”.
In the case of `O=c1[nH]cc(F)c(=O)[nH]1` [Example 5-FU, 5-fluorouracil], the “antitumor effect (tumor volume)” value in data set [3] (setting [4]) is reported as “very weak antitumor effect”; in data set [3] (setting [5]), “antitumor effect that shrunk the tumor”. In addition, the “individuals died by the 28th day after administration” value in data set [3] (dose of 10 mg/kg, 5 mice per group) was 3. For the same compound, in data set [3] (dose of 80 mg/kg, 5 mice per group, up to 28 days), the survival result is reported as “all of the individuals died by the 17th day”.
Regarding `Nc1nc(=O)[nH]cc1F` [Example 5-FC, 5-fluorocytosine], the “antitumor effect (tumor volume)” value in data set [3] (setting [4]) and in data set [3] (setting [5]) was “no significant antitumor effect or toxicity” in each case.
As to “fluorescein isothiocyanate-dextran [FITC-Dex 40000]”, the viscosity in data set [1] (concentration 4 mg/mL) amounted to 0.0513 Pa·s; in data set [1] (concentration 10 mg/mL), 0.1377 Pa·s; in data set [1] (concentration 50 mg/mL), 0.5481 Pa·s.

For orientation: viscosity means the resistance of a fluid to flow. A high value points to sluggish flow.

Values taken from patent US10322092B2, “Substance-containing vesicle, and production method therefor” (JAPAN SCIENCE AND TECHNOLOGY AGENCY, priority 2013, dated 2019).
